Experimental data taken from patent US7358359B2, “Antibacterial agents” (University of Washington, priority 2003, dated 2008).
Where two headings read alike, the source gives them in different places.

Tests used:
Assay type in all cases: cell-based
[1] = system: Pseudomonas aeruginosa cystic fibrosis isolate 3236; test: MIC vs cystic fibrosis isolate of P. aeruginosa 3236 (sensitive to most antibacterials); settings: strain 3236, Sensitive, LpxC inhibitors, MIC key class
Procedure: (§1) Bacterial isolates were cultivated from −70° C. frozen stocks by two consecutive overnight passages at 35° C. in ambient air on 5% blood agar (Remel, Lenexa, Kans.). Clinical isolates tested were from a collection composed of isolates collected during clinical trials and recent clinical isolates obtained from various geographically diverse hospitals in the US. Quality control and primary panel strains were from the American Type Culture Collection (ATCC; Rockville, Md.), with the exception of P. aeruginosa PAO200, a strain with a deletion of the mexABoprM genes that was received from Dr. H. Schweizer.
(§2) Minimum Inhibitory Concentrations (MICs) were determined by the broth microdilution method in accordance with the National Committee for Clinical Laboratory Standards (NCCLS) guidelines. In brief, organism suspensions were are adjusted to a 0.5 McFarland standard to yield a final inoculum between 3×10^5 and 7×10^5 colony-forming units (CFU)/mL. Drug dilutions and inocula were made in sterile, cation adjusted Mueller-Hinton Broth (Remel). An inoculum volume of 100 μl was added to wells containing 100 μl of broth with 2-fold serial dilutions of drug. All inoculated microdilution trays were incubated in ambient air at 35° C. for 18-24 hours. Following incubation, the lowest concentration of the drug that prevented visible growth was recorded as the MIC.

[2] = system: Pseudomonas aeruginosa cystic fibrosis isolate 2196; test: MIC vs cystic fibrosis isolate of P. aeruginosa 2196 (resistant to ciprofloxacin); settings: strain 2196, Cipro R, LpxC inhibitors, MIC key class
Procedure: as §1, §2

[3] = system: Pseudomonas aeruginosa cystic fibrosis isolate 1145; test: microbe, parasite or virus in culture
Procedure: as §1, §2

[4] = system: Pseudomonas aeruginosa cystic fibrosis isolate 3206; test: microbe, parasite or virus in culture
Procedure: as §1, §2

[5] = system: non-CF clinical isolates of P. aeruginosa; test: MIC vs non-CF clinical isolates of P. aeruginosa; settings: Pseudomonas aeruginosa, MIC key class
Procedure: as §1, with “Schweizer. […] Strain Z61 (ATCC 35151) is also hypersusceptible to antibacterials. It is thought that the hypersusceptibility of this strain is the result of increased permeability of its outer membrane (Angus B L et al, Antimicrobial Agents and Chemotherapy 1982 21,299-309: Outer membrane permeability in Pseudomonas aeruginosa: Comparison of a wild-type with an antibacterial-supersusceptible mutant).” for “Schweizer.”
as §2, with “MIC. Performance of the assay was monitored by the use of laboratory quality-control strains against tobramycin, that has a defined MIC spectrum, in accordance with NCCLS guidelines.” for “MIC.”

[6] = system: Acinetobacter calcoaceticus; test: MIC vs non-fermenting organisms: Acinetobacter calcoaceticus; settings: Acinet. calc., MIC key class
Procedure: as §1, §2

Alcaligenes xylosoxidans = test: MIC vs non-fermenting organisms: Alcaligenes xylosoxidans; settings: Achromobacter xylosoxidans; Alcal. xyl; MIC key class
Procedure: as §1, §2

Enterobacter cloacae = test: MIC vs enteric organisms: Enterobacter cloacae; settings: E. clo., MIC key class
Procedure: as §1, §2

Escherichia coli = test: MIC vs enteric organisms: Escherichia coli clinical isolates; settings: Escherichia coli, MIC key class, read-out: MIC
Procedure: as §1, §2

[7] = system: Pseudomonas aeruginosa cystic fibrosis isolate 3232; test: MIC vs cystic fibrosis isolate of P. aeruginosa 3232 (Ceftaz. R); settings: strain 3232, Ceftaz. R, LpxC inhibitors, MIC key class
[8] = strain 1145, MDR, LpxC inhibitors, MIC key class, read-out: MIC
[9] = strain 3206, MDR, LpxC inhibitors, MIC key class, read-out: MIC

Measured: MIC

C[C@@H](O)[C@H](NC(=O)c1ccc(C#Cc2ccccc2)cc1)C(=O)NO [Example 12, N-(1-(N-hydroxycarbamoyl)(1S,2R)-2-hydroxypropyl)[4-(2-phenylethynyl)phenyl]carboxamide]
6.25 to 50 µg/mL: [2]
< 6.25 µg/mL: [1] | [3] | [4] | [5]; P. aer 12307 | [5]; P. aer 27853 | [5]; P. aer psa-6b | [5]; PAO1, P. aer. PAO1 | [6] | Alcaligenes xylosoxidans | Enterobacter cloacae | Escherichia coli; E. coli 1619 | Escherichia coli; E. coli 2788 | [7]

C[C@@H](N)[C@H](NC(=O)c1ccc(C#Cc2ccccc2)cc1)C(=O)NO [Example 13]
> 50 µg/mL: [6]
< 6.25 µg/mL: [1] | [2] | [3]; [8] | [4]; [9] | [5]; P. aer 27853 | [5]; P. aer psa-6b | [5]; PAO1, P. aer. PAO1 | Alcaligenes xylosoxidans | Enterobacter cloacae | Escherichia coli; E. coli 1619 | Escherichia coli; E. coli 2788 | [7]

C[C@@H](O)[C@H](NC(=O)c1ccc(C#CC#Cc2ccccc2)cc1)C(=O)NO [Example 19, N-(1-(N-hydroxycarbamoyl)(1S,2R)-2-hydroxypropyl)[4-(4-phenylbuta-1,3-diynyl)phenyl]carboxamide]
6.25 to 50 µg/mL: Alcaligenes xylosoxidans
< 6.25 µg/mL: [1] | [2] | [3]; [8] | [4]; [9] | [5]; P. aer 12307 | [5]; P. aer 27853 | [5]; P. aer psa-6b | [5]; PAO1, P. aer. PAO1 | [6] | Enterobacter cloacae | Escherichia coli; E. coli 1619 | Escherichia coli; E. coli 2788 | [7]

CCc1ccc(-c2ccc(C(=O)N[C@@H](CN)C(=O)NO)cc2)cc1 [Example 280, N-[(1S)-1-(aminomethyl)-2-(hydroxyamino)-2-oxoethyl]-4′-ethyl-1,1-biphenyl-4-carboxamide]
> 50 µg/mL: [6]
6.25 to 50 µg/mL: [2] | Alcaligenes xylosoxidans
< 6.25 µg/mL: [1] | [3]; [8] | [4]; [9] | [5]; P. aer 12307 | [5]; P. aer 27853 | [5]; P. aer psa-6b | [5]; PAO1, P. aer. PAO1 | Enterobacter cloacae | Escherichia coli; E. coli 1619 | Escherichia coli; E. coli 2788 | [7]

C[C@@H](O)[C@H](NC(=O)c1ccc(-c2ccc(Br)cc2)cc1)C(=O)NO [Example 315, 4′-bromo-N-{(1S,2R)-2-hydroxy-1-[(hydroxyamino)carbonyl]propyl}-1,1′-biphenyl-4-carboxamide]
6.25 to 50 µg/mL: Alcaligenes xylosoxidans
< 6.25 µg/mL: [1] | [2] | [3]; [8] | [4]; [9] | [5]; P. aer 12307 | [5]; P. aer 27853 | [5]; P. aer psa-6b | [5]; PAO1, P. aer. PAO1 | Enterobacter cloacae | Escherichia coli; E. coli 1619 | Escherichia coli; E. coli 2788 | [7]
> 50 µg/mL: [6]

NC[C@H](NC(=O)c1ccc(C#CC#Cc2ccccc2)cc1)C(=O)NO [Example 481, N-[(1S)-1-(aminomethyl)-2-(hydroxyamino)-2-oxoethyl]-4-(4-phenylbuta-1,3-diynyl)benzamide]
> 50 µg/mL: [6] | Alcaligenes xylosoxidans
< 6.25 µg/mL: [1] | [2] | [3]; [8] | [4]; [9] | [5]; P. aer 12307 | [5]; P. aer 27853 | [5]; P. aer psa-6b | [5]; PAO1, P. aer. PAO1 | Enterobacter cloacae | Escherichia coli; E. coli 1619 | Escherichia coli; E. coli 2788 | [7]

NC[C@H](NC(=O)c1ccc(C#Cc2ccc(NC(=O)CNC3CC3)cc2)cc1)C(=O)NO [Example 516, N-[(1S)-1-(aminomethyl)-2-(hydroxyamino)-2-oxoethyl]-4-[(4-{[(cyclopropylamino)acetyl]amino}phenyl)ethynyl]benzamide]
< 6.25 µg/mL: [1] | [2] | [3]; [8] | [4]; [9] | [5]; P. aer 12307 | [5]; P. aer 27853 | [5]; P. aer psa-6b | Escherichia coli; E. coli 1619 | [7]
6.25 to 50 µg/mL: Enterobacter cloacae | Escherichia coli; E. coli 2788
> 50 µg/mL: [6] | Alcaligenes xylosoxidans

C[C@@H](O)[C@H](NC(=O)c1ccc(C#CC#Cc2ccc(NC(=O)CNc3ccccc3)cc2)cc1)C(=O)NO [Example 777, N-{(1S,2R)-2-hydroxy-1-[(hydroxyamino)carbonyl]propyl}-4-[4-(4-{[(phenylamino)acetyl]amino}phenyl)buta-1,3-diynyl]benzamide]
< 6.25 µg/mL: [1] | [2] | [3]; [8] | [4]; [9] | [5]; P. aer 12307 | [5]; P. aer 27853 | [6] | Enterobacter cloacae | Escherichia coli; E. coli 1619 | Escherichia coli; E. coli 2788 | [7]
6.25 to 50 µg/mL: [5]; P. aer psa-6b | Alcaligenes xylosoxidans

CCc1ccc(-c2ccc(C(=O)N[C@H](C(=O)NO)[C@@H](C)N)cc2)cc1 [Example 779, N-{(1S,2R)-2-amino-1-[(hydroxyamino)carbonyl]propyl)-4′-ethyl-1,1′-biphenyl-4-carboxamide]
> 50 µg/mL: [6]
< 6.25 µg/mL: [1] | [2] | [3]; [8] | [4]; [9] | [5]; P. aer 27853 | [5]; P. aer psa-6b | [5]; PAO1, P. aer. PAO1 | Alcaligenes xylosoxidans | Enterobacter cloacae | Escherichia coli; E. coli 1619 | Escherichia coli; E. coli 2788 | [7]

C[C@@H](O)[C@H](NC(=O)c1ccc(C#CC#Cc2ccc(NC(=O)CNc3ccccn3)cc2)cc1)C(=O)NO [Example 801, N-{(1S,2R)-2-hydroxy-1-[(hydroxyamino)carbonyl]propyl}-4-[4-(4-{[(pyridin-2-ylamino)acetyl]amino}phenyl)buta-1,3-diynyl]benzamide]
> 50 µg/mL: Alcaligenes xylosoxidans
< 6.25 µg/mL: [1] | [2] | [3]; [8] | [4]; [9] | [5]; P. aer 27853 | [5]; P. aer psa-6b | [5]; PAO1, P. aer. PAO1 | Enterobacter cloacae | Escherichia coli; E. coli 1619 | Escherichia coli; E. coli 2788 | [7]
6.25 to 50 µg/mL: [6]
